Measurements published in ChEMBL document CHEMBL1147949, “Potent anti-obese principle from Rosa canina: structural requirements and mode of action of trans-tiliroside” (2007).
Several values for one entry are separate records, joined by “and”; a condition that tells them apart may be missing. Equal values may be shown once. Activity calls are given as the source filed them. The rule behind the calls is not given here.

Experiments:
[1] = system: Mus musculus; assay: Effect on liver weight in ddY mouse at 10 mg/kg/day, po after 14 to 15 days; format: functional
[2] = system: Mus musculus; assay: Effect on liver triglyceride in ddY mouse at 10 mg/kg/day, po after 14 to 15 days; format: functional
[3] = system: Mus musculus; assay: Effect on food intake in ddY mouse at 10 mg/kg/day, po after 14 to 15 days; format: functional
[4] = system: Mus musculus; assay: Reduction of epididymal fat in ddY mouse at 10 mg/kg/day, po after 14 to 15 days; format: functional
[5] = system: Mus musculus; assay: Reduction of mesenteric fat in ddY mouse at 10 mg/kg/day, po after 14 to 15 days; format: functional
[6] = system: Mus musculus; assay: Reduction of paranephric fat in ddY mouse at 10 mg/kg/day, po after 14 to 15 days; format: functional
[7] = system: Mus musculus; assay: Reduction of visceral fat in ddY mouse at 10 mg/kg/day, po after 14 to 15 days; format: functional
[8] = system: Mus musculus; assay: Effect on plasma triglyceride in ddY mouse at 10 mg/kg/day, po after 14 to 15 days; format: functional
[9] = system: Mus musculus; assay: Effect on total plasma cholesterol in ddY mouse at 10 mg/kg/day, po after 14 to 15 days; format: functional
[10] = system: Mus musculus; assay: Effect on free fatty acid in ddY mouse plasma at 10 mg/kg/day, po after 14 to 15 days; format: functional
[11] = system: Mus musculus; assay: Effect on D-glucose level in ddY mouse plasma at 0.1 to 10 mg/kg/day for 15 days; format: functional
[12] = system: Mus musculus; assay: Effect on liver weight in ddY mouse at 25 mg/kg/day, po after 14 to 15 days; format: functional
[13] = system: Mus musculus; assay: Effect on liver weight in ddY mouse at 50 mg/kg/day, po after 14 to 15 days; format: functional
[14] = system: Mus musculus; assay: Effect on liver weight in ddY mouse at 12.5 mg/kg/day, po after 14 to 15 days; format: functional
[15] = system: Mus musculus; assay: Effect on liver weight in ddY mouse at 0.1 mg/kg/day, po after 14 to 15 days; format: functional
[16] = system: Mus musculus; assay: Effect on liver weight in ddY mouse at 1 mg/kg/day, po after 14 to 15 days; format: functional
[17] = system: Mus musculus; assay: Effect on liver triglyceride in ddY mouse at 50 mg/kg/day, po after 14 to 15 days; format: functional
[18] = system: Mus musculus; assay: Effect on liver triglyceride in ddY mouse at 0.1 mg/kg/day, po after 14 to 15 days; format: functional
[19] = system: Mus musculus; assay: Effect on liver triglyceride in ddY mouse at 12.5 mg/kg/day, po after 14 to 15 days; format: functional
[20] = system: Mus musculus; assay: Effect on liver triglyceride in ddY mouse at 1 mg/kg/day, po after 14 to 15 days; format: functional
[21] = system: Liver; assay: Increase in expression of PPAR alpha mRNA level in liver tissue of orally dosed ddY mouse, after 24 hrs; format: functional, organism-based
[22] = system: Mus musculus; assay: Effect on food intake in ddY mouse at 25 mg/kg/day, po after 14 to 15 days; format: functional
[23] = system: Mus musculus; assay: Effect on food intake in ddY mouse at 50 mg/kg/day, po after 14 to 15 days; format: functional
[24] = system: Mus musculus; assay: Effect on food intake in ddY mouse at 12.5 mg/kg/day, po after 14 to 15 days; format: functional
[25] = system: Mus musculus; assay: Effect on food intake in ddY mouse at 0.1 mg/kg/day, po after 14 to 15 days; format: functional
[26] = system: Mus musculus; assay: Effect on food intake in ddY mouse at 1 mg/kg/day, po after 14 to 15 days; format: functional
[27] = system: Mus musculus; assay: Reduction of epididymal fat in ddY mouse at 25 mg/kg/day, po after 14 to 15 days; format: functional
[28] = system: Mus musculus; assay: Reduction of epididymal fat in ddY mouse at 50 mg/kg/day, po after 14 to 15 days; format: functional
[29] = system: Mus musculus; assay: Reduction of epididymal fat in ddY mouse at 12.5 mg/kg/day, po after 14 to 15 days; format: functional
[30] = system: Mus musculus; assay: Reduction of epididymal fat in ddY mouse at 0.1 mg/kg/day, po after 14 to 15 days; format: functional
[31] = system: Mus musculus; assay: Reduction of epididymal fat in ddY mouse at 1 mg/kg/day, po after 14 to 15 days; format: functional
[32] = system: Mus musculus; assay: Reduction of mesenteric fat in ddY mouse at 25 mg/kg/day, po after 14 to 15 days; format: functional
[33] = system: Mus musculus; assay: Reduction of mesenteric fat in ddY mouse at 50 mg/kg/day, po after 14 to 15 days; format: functional
[34] = system: Mus musculus; assay: Reduction of mesenteric fat in ddY mouse at mg/kg/day, po after 14 to 15 days; format: functional
[35] = system: Mus musculus; assay: Reduction of mesenteric fat in ddY mouse at 0.1 mg/kg/day, po after 14 to 15 days; format: functional
[36] = system: Mus musculus; assay: Reduction of mesenteric fat in ddY mouse at 1 mg/kg/day, po after 14 to 15 days; format: functional
[37] = system: Mus musculus; assay: Reduction of paranephric fat in ddY mouse at 25 mg/kg/day, po after 14 to 15 days; format: functional
[38] = system: Mus musculus; assay: Reduction of paranephric fat in ddY mouse at 50 mg/kg/day, po after 14 to 15 days; format: functional
[39] = system: Mus musculus; assay: Reduction of paranephric fat in ddY mouse at 12.5 mg/kg/day, po after 14 to 15 days; format: functional
[40] = system: Mus musculus; assay: Reduction of paranephric fat in ddY mouse at 0.1 mg/kg/day, po after 14 to 15 days; format: functional
[41] = system: Mus musculus; assay: Reduction of paranephric fat in ddY mouse at 1 mg/kg/day, po after 14 to 15 days; format: functional
[42] = system: Mus musculus; assay: Reduction of visceral fat in ddY mouse at 25 mg/kg/day, po after 14 to 15 days; format: functional
[43] = system: Mus musculus; assay: Reduction of visceral fat in ddY mouse at 50 mg/kg/day, po after 14 to 15 days; format: functional
[44] = system: Mus musculus; assay: Reduction of visceral fat in ddY mouse at 12.5 mg/kg/day, po after 14 to 15 days; format: functional
[45] = system: Mus musculus; assay: Reduction of visceral fat in ddY mouse at 0.1 mg/kg/day, po after 14 to 15 days; format: functional
[46] = system: Mus musculus; assay: Reduction of visceral fat in ddY mouse at 1 mg/kg/day, po after 14 to 15 days; format: functional
[47] = system: Mus musculus; assay: Effect on total plasma cholesterol in ddY mouse at 12.5 mg/kg/day, po after 14 to 15 days; format: functional
[48] = system: Mus musculus; assay: Effect on plasma triglyceride in ddY mouse at 50 mg/kg/day, po after 14 to 15 days; format: functional
[49] = system: Mus musculus; assay: Effect on plasma triglyceride in ddY mouse at 12.5 mg/kg/day, po after 14 to 15 days; format: functional
[50] = system: Mus musculus; assay: Effect on plasma triglyceride in ddY mouse at 0.1 mg/kg/day, po after 14 to 15 days; format: functional
[51] = system: Mus musculus; assay: Effect on plasma triglyceride in ddY mouse at 1 mg/kg/day, po after 14 to 15 days; format: functional
[52] = system: Mus musculus; assay: Effect on total plasma cholesterol in ddY mouse at 50 mg/kg/day, po after 14 to 15 days; format: functional
[53] = system: Mus musculus; assay: Effect on total plasma cholesterol in ddY mouse at 0.1 mg/kg/day, po after 14 to 15 days; format: functional
[54] = system: Mus musculus; assay: Effect on total plasma cholesterol in ddY mouse at 1 mg/kg/day, po after 14 to 15 days; format: functional
[55] = system: Mus musculus; assay: Effect on free fatty acid in ddY mouse plasma at 50 mg/kg/day, po after 14 to 15 days; format: functional
[56] = system: Mus musculus; assay: Effect on free fatty acid in ddY mouse plasma at 12.5 mg/kg/day, po after 14 to 15 days; format: functional
[57] = system: Mus musculus; assay: Effect on free fatty acid in ddY mouse plasma at 0.1 mg/kg/day, po after 14 to 15 days; format: functional
[58] = system: Mus musculus; assay: Effect on free fatty acid in ddY mouse plasma at 1 mg/kg/day, po after 14 to 15 days; format: functional

O=C(O)/C=C/c1ccc(O)cc1 [COUMARIC ACID]
Activity [1]: 1640 mg
Activity [2]: 58.2 mg/g
Activity [3]: 4.3 g/day
Activity [4]: 847 mg
Activity [5]: 761 mg
Activity [6]: 307 mg
Activity [7]: 1920 mg
Activity [8]: 162 mg/dL
Activity [9]: 143 mg/dL
Activity [10]: 1.67 mEq/L
Activity [11]: 106 mg/dL

O=C(/C=C/c1ccc(O)cc1)OC[C@H]1O[C@@H](Oc2c(-c3ccc(O)cc3)oc3cc(O)cc(O)c3c2=O)[C@H](O)[C@@H](O)[C@@H]1O [TILIROSIDE]
Activity [12]: 1590 mg and 1680 mg
Activity [13]: 1560 mg
Activity [14]: 1590 mg
Activity [15]: 1490 mg
Activity [16]: 1390 mg
Activity [1]: 1500 mg
Activity [17]: 63.9 mg/g
Activity [18]: 46.7 mg/g
Activity [19]: 60.4 mg/g
Activity [20]: 30.8 mg/g
Activity [21]: Active
Activity [22]: 5 g/day and 5.4 g/day
Activity [23]: 5 g/day
Activity [24]: 5.7 g/day
Activity [25]: 4.7 g/day
Activity [26]: 5 g/day
Activity [3]: 5.3 g/day and 4.22 g/day
Activity [27]: 918 mg and 558 mg
Activity [28]: 811 mg
Activity [29]: 1140 mg
Activity [30]: 716 mg
Activity [31]: 407 mg
Activity [4]: 350 mg and 626 mg
Activity [32]: 738 mg and 508 mg
Activity [33]: 812 mg
Activity [34]: 745 mg
Activity [35]: 662 mg
Activity [36]: 509 mg
Activity [5]: 516 mg and 561 mg
Activity [37]: 394 mg and 194 mg
Activity [38]: 330 mg
Activity [39]: 350 mg
Activity [40]: 284 mg
Activity [41]: 141 mg
Activity [6]: 132 mg and 266 mg
Activity [42]: 2050 mg and 1260 mg
Activity [43]: 1950 mg
Activity [44]: 2240 mg
Activity [45]: 1660 mg
Activity [46]: 1060 mg
Activity [7]: 998 mg and 1450 mg
Activity [47]: 156 mg/dL
Activity [48]: 161 mg/dL
Activity [49]: 169 mg/dL
Activity [50]: 119 mg/dL
Activity [51]: 95 mg/dL
Activity [52]: 144 mg/dL
Activity [53]: 108 mg/dL
Activity [54]: 102 mg/dL
Activity [55]: 1.44 mEq/L
Activity [56]: 1.5 mEq/L
Activity [57]: 1.17 mEq/L
Activity [58]: 1.01 mEq/L
Activity [11]: 93 mg/dL

O=c1c(O)c(-c2ccc(O)cc2)oc2cc(O)cc(O)c12 [KAEMPFEROL]
Activity [1]: 1520 mg
Activity [2]: 60.3 mg/g
Activity [3]: 4.2 g/day
Activity [4]: 896 mg
Activity [5]: 804 mg
Activity [6]: 418 mg
Activity [7]: 2120 mg
Activity [8]: 139 mg/dL
Activity [9]: 149 mg/dL
Activity [10]: 1.72 mEq/L
Activity [11]: 110 mg/dL

O=c1c(O[C@@H]2O[C@H](CO)[C@@H](O)[C@H](O)[C@H]2O)c(-c2ccc(O)cc2)oc2cc(O)cc(O)c12 [ASTRAGALIN]
Activity [1]: 1640 mg
Activity [2]: 64.8 mg/g
Activity [3]: 4.34 g/day
Activity [4]: 797 mg
Activity [5]: 680 mg
Activity [6]: 293 mg
Activity [7]: 1770 mg
Activity [8]: 113 mg/dL
Activity [9]: 119 mg/dL
Activity [10]: 1.7 mEq/L
Activity [11]: 99 mg/dL
